Test results from patent US12128035B2, “Activating pyruvate kinase R” (Novo Nordisk Health Care AG, priority 2021, dated 2024).

Test system: 2,3-DPG blood levels
Assay: Phase 1 SAD/MAD: blood 2,3-DPG (LC-MS/MS) in healthy volunteers
Format: in vivo, human
Experimental: In this study, SAD/MAD cohorts are randomized (3 to 1) to receive Compound 1 or placebo (P). Compound 1 was evaluated first in 4 healthy SAD cohorts and 4 healthy MAD (14-day dosing period) cohorts. Based on the safety, and PK/PD profile from HS, Compound 1 is then evaluated in 1 SCD SAD cohort and 2 SCD MAD cohorts. Specifically, based on the safety and pharmacokinetic/pharmacodynamics (PK/PD) profile in healthy volunteer studies, Compound 1 is evaluated in patients (pts) with SCD, first in a single dose (SD or SAD) cohort and then in multiple-dose (MD or MAD) cohorts (14-day and 12-week). Safety assessments include AEs, vital signs, ECGs and laboratory parameters. PK/PD blood sampling was performed on Day 1 (SAD/MAD) and Day 14 (MAD) and up to 72 h after the last dose and at the end-of-study visit. PD parameters included 2,3-DPG, ATP, and p50 in all cohorts with additional PD studies (including oxygen scan) performed only in the SCD cohorts. PD parameters included 2,3-DPG, ATP, p50, RBC deformability with controlled deoxygenation and reoxygenation (Lorrca® oxygen scan) and varying osmolality (Lorrca® osmoscan)). To maintain study blind, pt identifiers were removed when needed.
In the SAD cohorts, the subjects' blood 2,3-DPG levels were measured periodically after dosing by a qualified LC-MS/MS method for the quantitation of 2,3-DPG in blood. Decreased 2,3-DPG blood levels were observed 6 hours following a single dose of Compound 1 at all dose levels (earlier timepoints were not collected). Maximum decreases in 2,3-DPG levels generally occurred ˜24 hours after the first dose with the reduction sustained ˜48-72 hr postdose. Table 15 reports the median percentage change in 2,3-DPG blood levels, relative to baseline, measured over time in healthy volunteers after a single dose of Compound 1 (200 mg, 400 mg, 700 mg, or 1000 mg) or placebo. Table 16 reports the mean percentage change in 2,3-DPG blood levels, relative to baseline, measured over time in healthy volunteers after a single dose of Compound 1 (200 mg, 400 mg, 700 mg, or 1000 mg). Accordingly, the median and mean reduction in the concentration of 2,3-DPG, relative to baseline, was at least about 30% at all dose levels tested 24 hours after administration of the single dose.
In the MAD cohorts, the subjects' blood 2,3-DPG levels were measured periodically after dosing by a qualified LC-MS/MS method for the quantitation of 2,3-DPG in blood. […] Table 18B reports the mean percentage change in 2,3-DPG blood levels, relative to baseline, measured over time after the first dose on days 1 and 14 in healthy volunteers who received daily doses of Compound 1 (100 mg BID, 200 mg BID, 300 mg BID, or 400 mg QD) for 14 days. Accordingly, the median and mean reduction in the concentration of 2,3-DPG, relative to baseline, was at least about 25% at all dose levels tested 24 hours after administration of the first dose on day 1 and at least about 40% at all dose levels tested 24 hours after administration of the first dose on day 14.
The following procedures are employed for the analysis of ATP and 2,3-DPG in human whole blood K2EDTA using a protein precipitation extraction procedure and analysis by LC-MS/MS.
The following procedures are used for sample extraction prior to analysis via LC-MS/MS. 15.0 μL of the calibration standards, quality controls, matrix blanks, and samples are aliquoted into a 96-well plate. 50.0 μL of the internal standard spiking solution is added to all samples on the plate, with the exception of the matrix blank samples; 50.0 μL of water is added to the matrix blank samples. Subsequently, 150 μL of water is added to all samples on the plate. The plate is then covered and agitated by vortex at high speed for ten minutes, after which 750 μL of methanol is added to all samples on the plate. The plate is covered and agitated by vortex for approximately 1 minute. The plate is then centrifuged at approximately 3500 RPM at approximately 4° C. for five minutes. […]

[1] = HV 100 mg BID, Day 1, 0 h after first daily dose
[2] = HV 100 mg BID, Day 1, 6 h after first daily dose
[3] = HV 100 mg BID, Day 1, 8 h after first daily dose
[4] = HV 100 mg BID, Day 1, 12 h after first daily dose
[5] = HV 100 mg BID, Day 1, 16 h after first daily dose
[6] = HV 100 mg BID, Day 1, 24 h after first daily dose
[7] = HV 100 mg BID, Day 14, 0 h after first daily dose
[8] = HV 100 mg BID, Day 14, 6 h after first daily dose
[9] = HV 100 mg BID, Day 14, 8 h after first daily dose
[10] = HV 100 mg BID, Day 14, 12 h after first daily dose
[11] = HV 100 mg BID, Day 14, 16 h after first daily dose
[12] = HV 100 mg BID, Day 14, 24 h after first daily dose
[13] = HV 100 mg BID, Day 14, 48 h after first daily dose
[14] = HV 100 mg BID, Day 14, 72 h after first daily dose
[15] = HV 200 mg BID, Day 1, 0 h after first daily dose
[16] = HV 200 mg BID, Day 1, 6 h after first daily dose
[17] = HV 200 mg BID, Day 1, 8 h after first daily dose
[18] = HV 200 mg BID, Day 1, 12 h after first daily dose
[19] = HV 200 mg BID, Day 1, 16 h after first daily dose
[20] = HV 200 mg BID, Day 1, 24 h after first daily dose
[21] = HV 200 mg BID, Day 14, 0 h after first daily dose
[22] = HV 200 mg BID, Day 14, 6 h after first daily dose
[23] = HV 200 mg BID, Day 14, 8 h after first daily dose
[24] = HV 200 mg BID, Day 14, 12 h after first daily dose
[25] = HV 200 mg BID, Day 14, 16 h after first daily dose
[26] = HV 200 mg BID, Day 14, 24 h after first daily dose
[27] = HV 200 mg BID, Day 14, 48 h after first daily dose
[28] = HV 200 mg BID, Day 14, 72 h after first daily dose
[29] = HV 300 mg BID, Day 1, 0 h after first daily dose
[30] = HV 300 mg BID, Day 1, 6 h after first daily dose
[31] = HV 300 mg BID, Day 1, 8 h after first daily dose
[32] = HV 300 mg BID, Day 1, 12 h after first daily dose
[33] = HV 300 mg BID, Day 1, 16 h after first daily dose
[34] = HV 300 mg BID, Day 1, 24 h after first daily dose
[35] = HV 300 mg BID, Day 14, 0 h after first daily dose
[36] = HV 300 mg BID, Day 14, 8 h after first daily dose
[37] = HV 300 mg BID, Day 14, 12 h after first daily dose
[38] = HV 300 mg BID, Day 14, 16 h after first daily dose
[39] = HV 300 mg BID, Day 14, 24 h after first daily dose
[40] = HV 300 mg BID, Day 14, 48 h after first daily dose
[41] = HV 300 mg BID, Day 14, 72 h after first daily dose
[42] = HV 400 mg QD, Day 1, 0 h after first daily dose
[43] = HV 400 mg QD, Day 1, 8 h after first daily dose
[44] = HV 400 mg QD, Day 1, 12 h after first daily dose
[45] = HV 400 mg QD, Day 1, 16 h after first daily dose
[46] = HV 400 mg QD, Day 1, 24 h after first daily dose
[47] = HV 400 mg QD, Day 14, 0 h after first daily dose

O=C([C@H](CO)c1ccccc1)N1CC2=C(C1)CN(S(=O)(=O)c1cnc3c(c1)OCCO3)C2 (single isomer, unassigned) [Compound 1]
Mean Percentage Change in 2,3-DPG Levels [1]: 0%
Median Percentage Change in 2,3-DPG Levels [1]: 0.0%
Mean Percentage Change in 2,3-DPG Levels [2]: −15%
Median Percentage Change in 2,3-DPG Levels [2]: −16%
Mean Percentage Change in 2,3-DPG Levels [3]: −13%
Median Percentage Change in 2,3-DPG Levels [3]: −12%
Mean Percentage Change in 2,3-DPG Levels [4]: −18%
Median Percentage Change in 2,3-DPG Levels [4]: −18%
Mean Percentage Change in 2,3-DPG Levels [5]: −20%
Median Percentage Change in 2,3-DPG Levels [5]: −18%
Mean Percentage Change in 2,3-DPG Levels [6]: −29%
Median Percentage Change in 2,3-DPG Levels [6]: −28%
Mean Percentage Change in 2,3-DPG Levels [7]: −43%
Median Percentage Change in 2,3-DPG Levels [7]: −42.0%
Mean Percentage Change in 2,3-DPG Levels [8]: −44%
Median Percentage Change in 2,3-DPG Levels [8]: −44%
Mean Percentage Change in 2,3-DPG Levels [9]: −45%
Median Percentage Change in 2,3-DPG Levels [9]: −45%
Mean Percentage Change in 2,3-DPG Levels [10]: −44%
Median Percentage Change in 2,3-DPG Levels [10]: −44%
Mean Percentage Change in 2,3-DPG Levels [11]: −42%
Median Percentage Change in 2,3-DPG Levels [11]: −44%
Mean Percentage Change in 2,3-DPG Levels [12]: −43%
Median Percentage Change in 2,3-DPG Levels [12]: −44%
Mean Percentage Change in 2,3-DPG Levels [13]: −32%
Median Percentage Change in 2,3-DPG Levels [13]: −35%
Mean Percentage Change in 2,3-DPG Levels [14]: −22%
Median Percentage Change in 2,3-DPG Levels [14]: −20%
Mean Percentage Change in 2,3-DPG Levels [15]: 0%
Median Percentage Change in 2,3-DPG Levels [15]: 0.0%
Mean Percentage Change in 2,3-DPG Levels [16]: −16%
Median Percentage Change in 2,3-DPG Levels [16]: −13%
Mean Percentage Change in 2,3-DPG Levels [17]: −19%
Median Percentage Change in 2,3-DPG Levels [17]: −22%
Mean Percentage Change in 2,3-DPG Levels [18]: −22%
Median Percentage Change in 2,3-DPG Levels [18]: −23%
Mean Percentage Change in 2,3-DPG Levels [19]: −33%
Median Percentage Change in 2,3-DPG Levels [19]: −34%
Mean Percentage Change in 2,3-DPG Levels [20]: −45%
Median Percentage Change in 2,3-DPG Levels [20]: −48%
Mean Percentage Change in 2,3-DPG Levels [21]: −49%
Median Percentage Change in 2,3-DPG Levels [21]: −49%
Mean Percentage Change in 2,3-DPG Levels [22]: −49%
Median Percentage Change in 2,3-DPG Levels [22]: −49%
Mean Percentage Change in 2,3-DPG Levels [23]: −47%
Median Percentage Change in 2,3-DPG Levels [23]: −44%
Mean Percentage Change in 2,3-DPG Levels [24]: −43%
Median Percentage Change in 2,3-DPG Levels [24]: −42%
Mean Percentage Change in 2,3-DPG Levels [25]: −49%
Median Percentage Change in 2,3-DPG Levels [25]: −43%
Mean Percentage Change in 2,3-DPG Levels [26]: −47%
Median Percentage Change in 2,3-DPG Levels [26]: −48%
Mean Percentage Change in 2,3-DPG Levels [27]: −40%
Median Percentage Change in 2,3-DPG Levels [27]: −39%
Mean Percentage Change in 2,3-DPG Levels [28]: −23%
Median Percentage Change in 2,3-DPG Levels [28]: −20%
Mean Percentage Change in 2,3-DPG Levels [29]: 0%
Median Percentage Change in 2,3-DPG Levels [29]: 0.0%
Mean Percentage Change in 2,3-DPG Levels [30]: −20%
Median Percentage Change in 2,3-DPG Levels [30]: −19%
Mean Percentage Change in 2,3-DPG Levels [31]: −22%
Median Percentage Change in 2,3-DPG Levels [31]: −24%
Mean Percentage Change in 2,3-DPG Levels [32]: −31%
Median Percentage Change in 2,3-DPG Levels [32]: −32%
Mean Percentage Change in 2,3-DPG Levels [33]: −39%
Median Percentage Change in 2,3-DPG Levels [33]: −41%
Mean Percentage Change in 2,3-DPG Levels [34]: −47%
Median Percentage Change in 2,3-DPG Levels [34]: −51%
Mean Percentage Change in 2,3-DPG Levels [35]: −57%
Median Percentage Change in 2,3-DPG Levels [35]: −59%
Mean Percentage Change in 2,3-DPG Levels (HV 300 mg BID, Day 14, 6 h after first daily dose): −56%
Mean Percentage Change in 2,3-DPG Levels [36]: −55%
Median Percentage Change in 2,3-DPG Levels [36]: −55%
Mean Percentage Change in 2,3-DPG Levels [37]: −54%
Median Percentage Change in 2,3-DPG Levels [37]: −55%
Mean Percentage Change in 2,3-DPG Levels [38]: −53%
Median Percentage Change in 2,3-DPG Levels [38]: −52%
Mean Percentage Change in 2,3-DPG Levels [39]: −52%
Median Percentage Change in 2,3-DPG Levels [39]: −53%
Mean Percentage Change in 2,3-DPG Levels [40]: −43%
Median Percentage Change in 2,3-DPG Levels [40]: −45%
Mean Percentage Change in 2,3-DPG Levels [41]: −34%
Median Percentage Change in 2,3-DPG Levels [41]: −33%
Mean Percentage Change in 2,3-DPG Levels [42]: 0%
Median Percentage Change in 2,3-DPG Levels [42]: 0.0%
Mean Percentage Change in 2,3-DPG Levels (HV 400 mg QD, Day 1, 6 h after first daily dose): −26%
Mean Percentage Change in 2,3-DPG Levels [43]: −29%
Median Percentage Change in 2,3-DPG Levels [43]: −27%
Mean Percentage Change in 2,3-DPG Levels [44]: −38%
Median Percentage Change in 2,3-DPG Levels [44]: −38%
Mean Percentage Change in 2,3-DPG Levels [45]: −42%
Median Percentage Change in 2,3-DPG Levels [45]: −41%
Mean Percentage Change in 2,3-DPG Levels [46]: −48%
Median Percentage Change in 2,3-DPG Levels [46]: −48%
Mean Percentage Change in 2,3-DPG Levels [47]: −52%
Median Percentage Change in 2,3-DPG Levels [47]: −51%
Mean Percentage Change in 2,3-DPG Levels (HV 400 mg QD, Day 14, 6 h after first daily dose): −54%
